Data reported in ChEMBL document CHEMBL1201862, “PubChem BioAssay data set” (2004).
Active and inactive are the calls of the source.

Key:
[1] = target: Luciferin 4-monooxygenase (Photinus pyralis, UniProt P08659); experiment: inhibition of purified Photinus pyralis luciferase – biochemical, luminescence, dose response (AID 1891)
[2] = Luminescence Cell-Based Dose Confirmation HTS to Identify Inhibitors of Platelet Dense Granule Release. [Related pubchem assays: 1663 (Primary HTS), 1678 (Summary of Project)]; type: functional
[3] = luciferase reporter signal suppression in cells – H4 neuroglioma cells, luminescence, dose response (AID 1990); type: functional, cell-based
[4] = Luminescence Cell-Based Dose Response HTS to Identify Inhibitors of 5'UTR Stem-Loop Driven Prion Protein mRNA Translation in H4 Neuroglioblastoma Cells. [Related pubchem assays: 1827 (Project Summary), 1813 (Primary HTS)]; type: functional
[5] = alpha-synuclein stem-loop luciferase translation blockers – H4 neuroglioma cells, luminescence, confirmation (AID 1988); type: functional, cell-based
Large T antigen = Large T antigen (Simian virus 40, UniProt P03070); type: functional, Betapolyomavirus macacae;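 also: Confirmatory-stage PubChem screen for compounds that inhibit SV40 T antigen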
[6] = P. falciparum Dd2 growth inhibitors, dose response, SYBR Green, cherry-picked samples (AID 1159567); type: functional, cell-based
Genome polyprotein = Genome polyprotein (dengue virus type 2, UniProt P29990); experiment: flavivirus cap methylation enzyme inhibition – biochemical, confirmation dose response, primary screen (AID 588689); type: functional
[7] = target: T1, High affinity choline transporter 1 (Homo sapiens, UniProt Q9GZV3); experiment: human choline transporter blockers, potency – cell-based, 5-point CRC, membrane potential dye, dose response (AID 504840); type: functional
T1 sequence (Q9GZV3 whole entry): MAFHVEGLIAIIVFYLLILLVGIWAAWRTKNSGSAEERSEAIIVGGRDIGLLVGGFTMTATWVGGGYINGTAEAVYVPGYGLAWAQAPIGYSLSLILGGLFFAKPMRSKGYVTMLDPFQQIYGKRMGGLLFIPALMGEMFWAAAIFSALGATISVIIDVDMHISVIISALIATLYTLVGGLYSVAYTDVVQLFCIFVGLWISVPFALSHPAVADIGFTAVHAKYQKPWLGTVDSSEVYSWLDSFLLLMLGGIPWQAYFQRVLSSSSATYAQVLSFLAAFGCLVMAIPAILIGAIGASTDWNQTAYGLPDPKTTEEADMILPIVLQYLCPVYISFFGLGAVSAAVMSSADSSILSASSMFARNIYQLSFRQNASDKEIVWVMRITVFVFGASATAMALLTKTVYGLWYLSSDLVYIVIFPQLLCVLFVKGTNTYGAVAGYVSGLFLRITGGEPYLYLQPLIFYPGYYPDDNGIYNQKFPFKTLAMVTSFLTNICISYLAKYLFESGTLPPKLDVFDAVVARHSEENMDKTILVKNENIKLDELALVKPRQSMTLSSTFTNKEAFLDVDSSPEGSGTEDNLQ

[8] = target: T2, Polyadenylate-binding protein 1 (Homo sapiens, UniProt P11940); experiment: MLLE domain peptide-binding blockers, IC50 – biochemical, fluorescence polarization, FITC-PAM2 peptide, dose response (AID 602259); type: functional; settings: read-out: IC50_Mean
[9] = blockers of HIV-1 envelope-mediated cell-cell fusion – cherry-pick, dose response (AID 652057); type: functional, cell-based
[10] = blockers of HIV-1 ZM109 envelope-driven cell-cell fusion – HeLa effector, CEM target cells, luciferase, cherry-pick, dose response (AID 652058); type: functional, cell-based;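 also: luciferase signal from HIV-1 Env mediated cell-cell fusion of effector and target cells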
[11] = HIV-1 AD8 envelope cell-cell fusion blockers – cherry-pick, dose response (AID 652062); type: functional, cell-based;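 also: luciferase signal from cell-cell fusion driven by HIV-1 clade B AD8 Env; potency is for inhibitors of fusion seen as a drop in luminescence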
Nonstructural protein 1 = Nonstructural protein 1 (Influenza A virus, UniProt Q194T2); type: functional, Influenza A virus (A/California/07/2009(H1N1))
[12] = target: T2, Polyadenylate-binding protein 1; experiment: MLLE binding blockers, Cy5 peptide tracer – biochemical, fluorescence polarization, Cy5-PAM2 peptide, secondary, miRNA deadenylation inhibitor project, dose response (AID 602260); type: functional; settings: read-out: IC50_Mean
[13] = target: T3, Rac GTPase-activating protein 1 (Homo sapiens, UniProt Q9H0H5); experiment: blockers of MgcRacGAP-driven Rac1 GTP hydrolysis – biochemical, ADP Hunter fluorescence, primary and confirmatory, confirmation (AID 624330); type: functional
T3 sequence (Q9H0H5 whole entry): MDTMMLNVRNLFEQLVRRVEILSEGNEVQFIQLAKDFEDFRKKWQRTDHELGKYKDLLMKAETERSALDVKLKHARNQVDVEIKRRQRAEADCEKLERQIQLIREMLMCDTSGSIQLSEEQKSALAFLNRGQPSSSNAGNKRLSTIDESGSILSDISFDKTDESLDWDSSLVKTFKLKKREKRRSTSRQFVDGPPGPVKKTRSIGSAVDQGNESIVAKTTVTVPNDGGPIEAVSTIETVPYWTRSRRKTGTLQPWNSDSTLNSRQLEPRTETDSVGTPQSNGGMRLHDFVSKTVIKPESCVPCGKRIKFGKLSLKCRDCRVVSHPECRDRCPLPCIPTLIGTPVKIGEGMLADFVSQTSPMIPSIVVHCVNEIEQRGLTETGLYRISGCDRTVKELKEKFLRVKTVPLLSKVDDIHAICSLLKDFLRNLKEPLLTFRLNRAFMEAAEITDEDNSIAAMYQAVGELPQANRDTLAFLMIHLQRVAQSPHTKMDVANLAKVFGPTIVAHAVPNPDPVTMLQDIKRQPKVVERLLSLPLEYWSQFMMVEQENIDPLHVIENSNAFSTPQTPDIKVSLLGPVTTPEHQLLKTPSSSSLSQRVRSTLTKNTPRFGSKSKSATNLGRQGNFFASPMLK

[14] = viability of HCT116 lacking mutant beta-catenin – cell-based, human colon tumor, dose response (AID 1045); type: functional;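 also: HCT116 colon tumor cells with beta catenin knocked out; cells exposed to compound for 60 hours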
[15] = viability of PTEN-deleted HCT116 cells – cell-based, HCT116 PTEN knockout, dose response (AID 1047); type: functional;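 also: HCT116 colon tumor cells with PTEN knocked out; cells exposed to compound for 60 hours before readout; potency for loss of cell viability measured by luminescence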
[16] = reduction of Shn3 3'UTR-driven luciferase in osteoblasts – cell-based, Clone20 osteoblasts, firefly luciferase, cherry-picked, dose response (AID 624132); type: functional;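 also: firefly luciferase luminescence from reporter carrying the Shn3 3'UTR in osteoblasts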
[17] = non-specific 3'UTR reporter inhibition in Clone20-Shn3RL – cell-based, Renilla luciferase, cherry-picked, counter-screen for Shn3 inhibitor project, dose response (AID 624133); type: functional

Sequence of Luciferin 4-monooxygenase (P08659 whole entry): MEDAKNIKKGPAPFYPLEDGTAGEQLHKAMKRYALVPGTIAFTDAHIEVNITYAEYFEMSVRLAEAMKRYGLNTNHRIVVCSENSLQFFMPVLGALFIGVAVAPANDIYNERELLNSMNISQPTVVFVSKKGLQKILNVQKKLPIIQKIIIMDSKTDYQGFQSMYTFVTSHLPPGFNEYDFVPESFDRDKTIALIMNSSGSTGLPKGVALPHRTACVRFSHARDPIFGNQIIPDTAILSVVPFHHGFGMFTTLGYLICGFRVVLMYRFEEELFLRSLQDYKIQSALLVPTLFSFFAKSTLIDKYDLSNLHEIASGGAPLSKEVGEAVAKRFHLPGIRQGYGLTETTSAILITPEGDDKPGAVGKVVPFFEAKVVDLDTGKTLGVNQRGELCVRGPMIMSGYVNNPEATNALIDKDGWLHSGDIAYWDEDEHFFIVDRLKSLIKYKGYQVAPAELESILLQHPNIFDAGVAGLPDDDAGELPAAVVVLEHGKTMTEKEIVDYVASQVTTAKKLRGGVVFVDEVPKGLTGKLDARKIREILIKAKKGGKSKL
T2 sequence (P11940 whole entry, the tested form may be a part): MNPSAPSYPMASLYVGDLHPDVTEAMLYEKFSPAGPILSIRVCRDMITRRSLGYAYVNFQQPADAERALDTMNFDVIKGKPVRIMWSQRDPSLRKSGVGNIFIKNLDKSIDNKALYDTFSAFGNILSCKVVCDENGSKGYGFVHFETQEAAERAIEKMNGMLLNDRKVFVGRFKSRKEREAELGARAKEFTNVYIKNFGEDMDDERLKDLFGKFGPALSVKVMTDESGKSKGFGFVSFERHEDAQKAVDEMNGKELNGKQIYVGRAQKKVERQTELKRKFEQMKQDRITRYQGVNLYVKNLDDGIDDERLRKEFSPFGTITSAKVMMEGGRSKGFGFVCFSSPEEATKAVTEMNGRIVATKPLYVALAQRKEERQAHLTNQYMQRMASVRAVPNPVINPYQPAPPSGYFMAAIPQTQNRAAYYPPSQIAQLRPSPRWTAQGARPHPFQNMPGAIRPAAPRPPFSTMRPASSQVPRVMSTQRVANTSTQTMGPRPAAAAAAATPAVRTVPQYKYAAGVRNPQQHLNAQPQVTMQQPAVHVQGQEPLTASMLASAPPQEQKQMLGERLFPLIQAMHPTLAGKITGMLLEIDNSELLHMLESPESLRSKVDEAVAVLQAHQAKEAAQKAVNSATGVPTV
Sequence of Genome polyprotein (P29990 2492-3391 limits assumed): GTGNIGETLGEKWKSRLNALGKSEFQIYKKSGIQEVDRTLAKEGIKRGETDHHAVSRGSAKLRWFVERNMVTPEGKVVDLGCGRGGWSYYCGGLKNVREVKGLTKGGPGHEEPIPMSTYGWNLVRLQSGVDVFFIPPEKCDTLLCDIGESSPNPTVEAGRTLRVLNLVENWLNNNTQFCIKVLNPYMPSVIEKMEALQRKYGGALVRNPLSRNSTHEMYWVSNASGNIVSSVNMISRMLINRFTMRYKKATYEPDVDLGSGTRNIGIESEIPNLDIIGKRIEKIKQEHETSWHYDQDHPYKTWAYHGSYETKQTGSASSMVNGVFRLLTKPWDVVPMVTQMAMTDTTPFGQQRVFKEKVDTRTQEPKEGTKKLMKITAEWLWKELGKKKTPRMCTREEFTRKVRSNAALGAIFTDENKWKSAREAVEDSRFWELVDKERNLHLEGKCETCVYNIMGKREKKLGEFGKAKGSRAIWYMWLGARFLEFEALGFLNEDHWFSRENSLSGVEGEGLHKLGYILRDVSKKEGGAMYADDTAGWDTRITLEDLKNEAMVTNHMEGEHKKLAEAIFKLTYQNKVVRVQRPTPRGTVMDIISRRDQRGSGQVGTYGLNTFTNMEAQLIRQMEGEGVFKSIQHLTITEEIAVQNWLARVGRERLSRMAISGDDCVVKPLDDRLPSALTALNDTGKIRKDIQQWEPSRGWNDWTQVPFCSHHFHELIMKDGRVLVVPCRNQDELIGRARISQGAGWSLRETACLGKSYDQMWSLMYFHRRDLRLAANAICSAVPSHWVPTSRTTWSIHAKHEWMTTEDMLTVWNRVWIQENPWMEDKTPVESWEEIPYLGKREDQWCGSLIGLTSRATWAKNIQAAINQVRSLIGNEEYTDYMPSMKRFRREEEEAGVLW
Sequence of Large T antigen (P03070 whole entry): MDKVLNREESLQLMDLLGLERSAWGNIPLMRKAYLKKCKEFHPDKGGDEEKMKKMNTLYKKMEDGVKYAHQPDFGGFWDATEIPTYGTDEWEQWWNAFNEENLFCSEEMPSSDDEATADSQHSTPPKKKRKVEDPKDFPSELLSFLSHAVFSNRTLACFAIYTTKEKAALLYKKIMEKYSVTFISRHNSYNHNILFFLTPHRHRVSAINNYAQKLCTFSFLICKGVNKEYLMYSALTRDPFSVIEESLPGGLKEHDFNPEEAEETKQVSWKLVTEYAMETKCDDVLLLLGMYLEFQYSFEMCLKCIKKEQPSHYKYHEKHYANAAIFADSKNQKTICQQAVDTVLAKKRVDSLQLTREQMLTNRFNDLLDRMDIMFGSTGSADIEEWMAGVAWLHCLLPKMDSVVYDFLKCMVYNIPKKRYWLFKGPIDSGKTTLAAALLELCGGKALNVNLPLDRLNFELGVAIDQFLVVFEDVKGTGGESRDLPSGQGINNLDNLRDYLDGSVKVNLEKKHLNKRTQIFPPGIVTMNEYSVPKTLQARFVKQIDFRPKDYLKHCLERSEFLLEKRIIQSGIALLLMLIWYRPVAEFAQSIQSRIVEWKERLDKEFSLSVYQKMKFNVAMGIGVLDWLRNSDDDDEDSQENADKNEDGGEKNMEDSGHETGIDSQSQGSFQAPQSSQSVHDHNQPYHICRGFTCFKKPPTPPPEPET
Sequence of Nonstructural protein 1 (Q194T2 whole entry): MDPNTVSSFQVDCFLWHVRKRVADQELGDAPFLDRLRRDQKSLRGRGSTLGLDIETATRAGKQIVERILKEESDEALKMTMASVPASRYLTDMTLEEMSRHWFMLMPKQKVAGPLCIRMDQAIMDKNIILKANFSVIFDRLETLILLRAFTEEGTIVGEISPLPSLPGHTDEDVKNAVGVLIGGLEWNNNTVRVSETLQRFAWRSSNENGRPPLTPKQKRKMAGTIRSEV

COc1ccc(CCNC(=O)c2ccc3c(c2)SC2=NS(=O)(=O)CCN23)cc1
EC50 [1]: > 112 µM (not active) | EC50 [2]: > 112 µM (not active)

CC(=O)N1c2ccc(S(=O)(=O)NCC3CCC(C(=O)N4CC(C)CC(C)C4)CC3)cc2CC1C (stereo not drawn)
EC50 [3]: > 120 µM (not active) | EC50 [4]: > 120 µM (not active) | EC50 [5]: > 120 µM (not active)

O=C(Nc1ccc(O)cc1)c1ccc2c(c1)C(=O)N(Cc1ccco1)C2=O
IC50 (Large T antigen): 9.65 µM (active)

CCN1CCSc2ccc(C(=O)NCc3ccccc3C)cc21
EC50 [1]: > 112 µM (not active) | EC50 [2]: > 112 µM (not active)

COC(=O)C(O)(c1cn(C)c2ccccc12)C(F)(F)F (stereo not drawn)
EC50 [1]: > 112 µM (not active) | EC50 [2]: > 112 µM (not active)

CCCNC(=O)Nc1ccc2c(c1)OC[C@H](C)N(Cc1ccc(-c3ccccn3)cc1)C[C@H](C)[C@H](OC)CN(C)C2=O
AC50 [6]: 5.09 µM (active)

Nc1nc2ncc(C(=O)c3cc(Cl)cc(Cl)c3O)cc2s1
IC50 (Genome polyprotein): > 100 µM (active)

CCCCCCCCN1[C@@H](CC(=O)O)c2ccc(C(F)(F)F)cc2S1(=O)=O
IC50 [7]: 18.2 µM (active)

CCOC(=O)c1c(/N=C/c2cccc([N+](=O)[O-])c2O)sc(C)c1C
IC50 [8]: 36.1 µM (inactive) | IC50 (Genome polyprotein): 77.1 µM (active)

O=C(O)C1=CC[C@@H](c2ccc(Cl)cc2)N(S(=O)(=O)c2ccc(Cl)cc2)[C@H]1c1ccc(F)cc1
IC50 [7]: 13.2 µM (active)

COc1cc(CNc2ccc3c(c2)OCCO3)ccc1OCC(N)=O
IC50 (Large T antigen): 40 µM (active)

O=C(C[C@@H]1CC[C@H](NC(=O)c2cccc(F)c2)[C@H](CO)O1)NCc1ccc(Oc2ccccc2)cc1
AC50 [9]: 28.5 µM (active) | AC50 [10]: 27 µM (active) | AC50 [11]: 15.2 µM (active)

COc1ccc(CNC(=O)c2cc(S(=O)(=O)N3CCCC3)cn2C)cc1
EC50 [1]: > 112 µM (not active) | EC50 [2]: > 112 µM (not active)

O=C(Nc1ccccc1)c1cccc(S(=O)(=O)NC2CCCC2)c1
IC50 [7]: 13.2 µM (active)

COc1ccc(NC(=O)c2cc([N+](=O)[O-])ccc2NC(=O)CNCc2ccccn2)c(OC)c1
IC50 (Nonstructural protein 1): 4.45 µM (active)

CN(C)c1ccc2c(c1)[C@H]1C[C@H](CC(=O)NCc3ccc(Oc4ccccc4)cc3)O[C@H](CO)[C@H]1O2
AC50 [6]: 10.5 µM (active)

CO[C@H]1CN(C)C(=O)c2cc(NC(=O)Cc3ccccc3)ccc2OC[C@H](C)N(C(=O)c2ccccc2F)C[C@H]1C
AC50 [6]: 4.94 µM (active)

Fc1c(F)c(F)c(/C=N/NC(=S)Nc2cccnc2)c(F)c1F
IC50 [12]: > 66 µM (inactive) | IC50 [8]: > 66 µM (inactive)

Cc1c(NC(=S)N/N=C/c2ccc([N+](=O)[O-])cc2O)c(=O)n(-c2ccccc2)n1C
IC50 (Nonstructural protein 1): 5.14 µM (active)

CCc1ccc(C(=O)COC(=O)CNC(=O)c2ccco2)cc1
EC50 [1]: > 112 µM (not active) | EC50 [2]: > 112 µM (not active)

COc1cc(OC)cc(C(=O)NCC(=O)N2CCN(c3ccc(O)cc3)CC2)c1
IC50 (Large T antigen): 65.2 µM (active)

COC(=O)c1ccc2c(=O)n(NC(=O)C(c3ccccc3)c3ccccc3)c(=S)[nH]c2c1
IC50 [12]: > 66 µM (inactive) | IC50 [8]: > 66 µM (inactive)

COc1ccc2c3c([nH]c2c1)[C@H](CO)N(Cc1ccccc1OC)CC31CCN(S(=O)(=O)c2ccccc2)CC1
AC50 [6]: 6.43 µM (active)

O=C(CCCn1nnc2ccccc2c1=O)N[C@H](C(=O)O)c1ccccc1
EC50 [1]: > 112 µM (not active) | EC50 [2]: > 112 µM (not active)

O=C1NC(=O)C(=Cc2coc3ccccc3c2=O)C(=O)N1
IC50 [7]: 15.1 µM (active) | IC50 (Genome polyprotein): > 100 µM (active)

O=C1NC(=O)C(=Cc2ccccc2OCCOc2ccc([N+](=O)[O-])cc2)C(=O)N1
IC50 (Large T antigen): 55.9 µM (active)

Cc1ccc(S(=O)(=O)Nc2ccc3c(c2)CC(=O)N([C@H](C)CO)C[C@H](C)[C@H](CN(C)S(=O)(=O)c2ccc(C)cc2)O3)cc1
AC50 [9]: 1.19 µM (active) | AC50 [11]: 4.36 µM (active)

CCn1nc([N+](=O)[O-])c(C(C#N)c2nc3ccccc3n2C)c(Cl)c1=O (stereo not drawn)
IC50 (Genome polyprotein): > 100 µM (active)

COc1ccc(SC[C@H](C)CN2CC[C@H](C(C)(C)C)CCC2=O)cc1
IC50 [12]: > 66 µM (inactive) | IC50 [8]: > 66 µM (inactive)

CC1CCCCC1NC(=O)Cn1nnc2ccccc2c1=O (stereo not drawn)
EC50 [3]: > 120 µM (not active) | EC50 [4]: > 120 µM (not active) | EC50 [5]: > 120 µM (not active)

COc1ccc2[nH]c3c(=O)n(CCCCC(=O)NCCN4CCCC4)c(=S)[nH]c3c2c1
IC50 (Large T antigen): 10.4 µM (active)

O=C(Nc1ccc(F)cc1)N1CCCCN2[C@H](C1)[C@H](c1ccc(C#Cc3ccccc3)cc1)[C@@H]2CO
AC50 [6]: 5.46 µM (active)

CN(C)c1ccc(NC(=O)COC(=O)CCC(=O)c2ccc(F)cc2)cc1
IC50 (Large T antigen): 19.2 µM (active)

O=C(O)CN1C(=O)/C(=C\c2cc(Br)ccc2OCc2ccccc2F)SC1=S
IC50 (Genome polyprotein): 33.1 µM (active)

c1ccc(CNc2nc3ccccc3n3cnnc23)cc1
EC50 [3]: > 120 µM (not active) | EC50 [4]: > 120 µM (not active) | EC50 [5]: 22.2 µM (active)

CCCc1cc(NCC2CCCO2)n2c(nc3ccccc32)c1C#N (stereo not drawn)
IC50 [7]: 8.03 µM (active)

Oc1ccc(/C=N/NC(=S)NCC2CCCO2)cc1 (stereo not drawn)
IC50 [13]: 30.8 µM (active) | IC50 (Large T antigen): 5.89 µM (active)

O=C(N/N=C/c1ccc(Cl)cc1)c1cc(-c2cccnc2)nc2ccccc12
EC50 [3]: > 120 µM (not active) | EC50 [4]: 12.8 µM (active) | EC50 [5]: 9.23 µM (active)

COc1c(S(=O)(=O)NCCCN2CCOCC2)ccc(Cl)c1Cl
IC50 [12]: > 66 µM (inactive) | IC50 [8]: > 66 µM (inactive)

CC(C)(C)C(=O)/C(=C\c1ccc([N+](=O)[O-])cc1)n1cncn1
EC50 [1]: > 112 µM (not active) | EC50 [2]: 5.77 µM (active) | EC50 [14]: 1.29 µM (active) | EC50 [15]: 1.58 µM (active)

CCCCN1C2=NCCCN2c2cc(C)c(C)cc21
AC50 [16]: 0.803 µM (active) | AC50 [17]: 4.56 µM (active)

Cc1cc(C)c2cc(C#N)c(N3CCCN(C(S)=NCCCN(C)C)CC3)nc2c1
EC50 [3]: > 60 µM (not active) | EC50 [4]: > 120 µM (not active) | EC50 [5]: 9.29 µM (active)

CCc1ccc(C(=O)NC(=S)Nc2ccc(N3CCOCC3)cc2)cc1
IC50 [12]: > 66 µM (inactive) | IC50 [8]: > 66 µM (inactive)

Cc1c(C(=O)OC(C)C)sc(NC(=O)c2cccnc2)c1C#N
IC50 [7]: 1.82 µM (active)

COc1ccc(S(=O)(=O)N(C)C[C@@H]2Oc3ccc(NC(=O)Cn4cnnn4)cc3CC(=O)N([C@H](C)CO)C[C@@H]2C)cc1
AC50 [9]: 3.38 µM (active) | AC50 [10]: 2.33 µM (active) | AC50 [11]: 3.68 µM (active)
